The text below walks through data of PubChem BioAssay (NCI).

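Dose response: 5 concentrations. Exposure: 48 h. Format: 96-well plates. Endpoint: linear interpolation; highest concentration if not reached. At the GI50, growth is halved. At the TGI there is no net growth.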

What all share (experiment): NCI-60 cell line screen, 48 h
In assay [1] the test system is NCI-H522 lung.
Assay [2] has as its system RXF 393 renal.
For assay [3], the system named is A498 renal.
The test system of assay [4] is TK-10 renal.
For assay [5], the system named is MALME-3M melanoma.
Assay [6] concerns OVCAR-4 ovarian.
Assay [7] deals with UACC-257 melanoma.
Assay [8] has as its system KM12 colon.
Assay [9] relates to T-47D breast.
Assay [10] relates to SK-MEL-2 melanoma.

As to `CCOC(=O)c1c(C)n(Cc2ccc(Cl)cc2Cl)c2c1cc1oc(=O)c(=O)n3cnc2c13`, the GI50 in [1] was 16.4 µM; in assay [2] it was 4.16 µM; in assay [3], 20.6 µM; in [4] it was 17.4 µM; in assay [5] it was 10.4 µM; in assay [6] it was 11.9 µM. Moreover, the GI50 was 9.51 µM in [7], 11.6 µM in assay [8], 12.8 µM in assay [9] and 22.5 µM in assay [10]. For the same compound, the TGI was 32.9 µM in assay [1]; 15.3 µM in assay [2]; 36.1 µM in assay [3]; 33 µM in assay [4]; 25.5 µM in [5]; 27.6 µM in assay [6]. Moreover, the TGI in assay [7] is 21.7 µM; in [8] it was 26 µM; in assay [9], 27.7 µM; in assay [10], 56.5 µM.
Take `O=C(Nc1ccc(F)cc1F)c1cc(Cl)ccc1O`: the GI50 in [1] was 0.974 µM; in assay [2], 1.37 µM; in assay [3] it was 0.257 µM; in assay [4], 5.53 µM; in assay [5] it was 0.782 µM; in [6], 0.636 µM. For the same compound, the GI50 in [7] is 0.397 µM; in assay [8] it was 2.31 µM; in [9], 0.473 µM; in assay [10], 1.16 µM. The TGI in assay [1] was 10.8 µM; in assay [2], 5.1 µM; in [3] it was 0.902 µM; in [4] it was 31.8 µM; in assay [5], 4.76 µM; in [6], above 100 µM. Also, the TGI in [7] is 2.68 µM; in [8], 7.68 µM; in assay [9], 5.5 µM; in assay [10], 4.93 µM.
For `Cn1cccc1-c1cc(-c2ccccc2)[nH]c(=O)c1C#N`, the GI50 in [1] is above 100 µM; in assay [2] it was above 100 µM; in assay [3] it was 25.6 µM; in assay [4] it was above 100 µM; in [5], above 100 µM; in assay [6], above 100 µM. Moreover, the GI50 in [7], in assay [8], in assay [9] and in assay [10] was above 100 µM in each case. Moreover, the TGI in [1], in assay [2], in [3], in [4], in assay [5] and in assay [6] was above 100 µM throughout. In addition, the TGI in assay [7], in [8], in [9] and in assay [10] was above 100 µM each time.
On to `CCCCCN(CCCCC)CC(O)c1cc(Cl)ccc1OC` (stereo not given), for which the GI50 is 1.98 µM in assay [1]; 2.58 µM in assay [2]; 11.6 µM in assay [3]; 10.9 µM in assay [4]; 6.29 µM in assay [5]; 3.17 µM in assay [6]. For the same compound, the GI50 in [7] is 4.98 µM; in assay [8], 7.35 µM; in assay [9], 11.5 µM; in assay [10] it was 3.22 µM. Also, the TGI in assay [1] was 15.2 µM; in [2] it was 7.87 µM; in [3], 29.3 µM; in [4] it was 24.1 µM; in assay [5], 21.3 µM; in assay [6], 16 µM. For the same compound, the TGI in assay [7] is 18.7 µM; in [8], 21.3 µM; in assay [9], 26.9 µM; in [10], 14.2 µM.
`CC1CN(S(=O)(=O)c2oc(-c3ccc(Cl)cc3)nc2C#N)CC(C)O1` (stereo not given): the GI50 is 0.945 µM in [1]; 1.69 µM in [2]; 14.4 µM in assay [3]; 1.75 µM in assay [4]; 1.57 µM in assay [5]; 2.02 µM in assay [6]. Besides, the GI50 was 2.15 µM in assay [7], 10.3 µM in assay [8], 2.3 µM in assay [9] and 4.1 µM in [10]. Further, the TGI in [1] stood at 2.79 µM; in assay [2] it was 3.15 µM; in assay [3], 27.5 µM; in assay [4] it was 3.26 µM; in assay [5], 2.96 µM; in assay [6], 4.65 µM. Further, the TGI in assay [7] came to 6.34 µM; in assay [8], 23.5 µM; in [9] it was 6.24 µM; in [10] it was 14.6 µM.
For the compound `Cc1ncc(C(=O)Nc2ccc(CN3CCN(C)CC3)c(C(F)(F)F)c2)cc1C#Cc1ccc(N)nc1`, the GI50 in [1] was 0.192 µM; in [2], 0.197 µM; in assay [3] it was 0.0898 µM; in assay [4] it was 0.654 µM; in assay [5] it was 0.0868 µM; in assay [6], 0.122 µM. Besides, the GI50 in assay [7] is 0.582 µM; in assay [8], 0.0135 µM; in assay [9] it was 1.08 µM; in assay [10], 0.212 µM. The TGI was 1.75 µM in [1]; 0.892 µM in assay [2]; 0.294 µM in assay [3]; 4.39 µM in [4]; 0.379 µM in [5]; 3.74 µM in assay [6]. In addition, the TGI was determined as 3.25 µM in assay [7], 1.21 µM in assay [8], 7.2 µM in assay [9] and 0.816 µM in assay [10].
In the case of `Cc1cc(Cl)ccc1OCC(=O)Nc1nc(N)nc(N)n1`, the TGI in assay [1], in [2], in [3], in [4], in assay [5] and in assay [6] was above 100 µM in each case. Moreover, the TGI in assay [7], in [8], in assay [9] and in [10] was above 100 µM in each case.
